Laboratory results as given in patent US20100022582A1, “Tetrahydroisoquinoline Compound and Medicinal Use Thereof” (priority 2005, published 2010).

Test system: THP-1 cell-derived macrophage
Test: Cholesterol ester accumulation-inhibitory activity (THP-1 cell-derived macrophage foam cell formation)
Assay type: cell-based
Details: THP-1 macrophage, acetyl LDL, 3 days
Description: THP-1 cells (DAINIPPON PHARMACEUTICAL CO., LTD.) were subcultured in RPMI-1640 medium containing 10% fetal calf serum (FBS), and cells at 6-13th passage after purchase were used. The cells were suspended in FBS-containing RPMI-1640 medium to give a suspension having a concentration of 4×10^5 cells/mL. The cell suspension was seeded on 12-well microplate by 1 mL, and treated with phorbol 12-myristate 13-acetate (PMA, 200 nM) as a differentiation inducer into macrophage. Then, acetyl LDL (400 μg/mL) separately prepared from LDL derived from plasma of a rabbit with genetic hyperlipidemia (KHC rabbit, Japan Laboratory Animals Inc.) was added. A test compound further dissolved in dimethyl sulfoxide (DMSO) and diluted with FBS-containing RPMI-1640 medium and a control solvent were applied. After cultivation in a carbon dioxide incubator for 3 days, the cells were washed with phosphate-buffered saline (pH 7.0), and the lipid was extracted with hexane-isopropanol (3:2). In addition, the cells were lysed with 1N-NaOH, and the protein content was measured. Free cholesterol and cholesterol ester in the lipid extraction sample were measured according to the method of Kunitomo et al. [Japan. J. Pharmacol., 34, 153-158 (1984)]. Cholesterol esters in the control cells and the cells treated with the test compound were compared, and the cholesterol ester accumulation inhibitory rate of the test compound was calculated.

Row | SMILES | cholesteryl ester accumulation inhibitory rate (%) (concentration: 10^−6 M)
1 | CCC(C)(C)C(=O)N1Cc2ccccc2C[C@H]1C(=O)Nc1c(C)cc(C)c(NS(C)(=O)=O)c1C [Example 19, 2-(2,2-dimethylbutyryl)-N-(3-methanesulfonylamino-2,4,6-trimethylphenyl)-1,2,3,4-tetrahydroisoquinoline-(3S)-carboxamide] | 66.4%
2 | CCCC(=O)N1Cc2cc(N(C)C)ccc2C[C@H]1C(=O)Nc1cc(C)c(O)c(C)c1C.Cl [Example 71, 2-butyryl-7-dimethylamino-N-(4-hydroxy-2,3,5-trimethylphenyl)-1,2,3,4-tetrahydroisoquinoline-(3S)-carboxamide hydrochloride] | 79.2%
3 | CCCCCC(=O)N1Cc2cc(N(C)C)ccc2C[C@@H]1C(=O)Nc1cc(C)c(O)c(C)c1C.Cl [Example 74, 7-dimethylamino-2-hexanoyl-N-(4-hydroxy-2,3,5-trimethylphenyl)-1,2,3,4-tetrahydroisoquinoline-(3R)-carboxamide hydrochloride] | 74.7%
4 | CCC(=O)N1Cc2cc(N3CCCC3)ccc2C[C@H]1C(=O)Nc1cc(C)c(O)c(C)c1C.Cl [Example 91, N-(4-hydroxy-2,3,5-trimethylphenyl)-2-propionyl-7-(pyrrolidin-1-yl)-1,2,3,4-tetrahydroisoquinoline-(3S)-carboxamide hydrochloride] | 71.1%
5 | Cc1cc(NC(=O)[C@@H]2Cc3ccc(N4CCCC4)cc3CN2C(=O)C(C)C)c(C)c(C)c1O.Cl [Example 93, N-(4-hydroxy-2,3,5-trimethylphenyl)-2-isobutyryl-7-(pyrrolidin-1-yl)-1,2,3,4-tetrahydroisoquinoline-(3S)-carboxamide hydrochloride] | 83.4%
6 | CCCCCC(=O)N1Cc2cc(NS(C)(=O)=O)ccc2C[C@H]1C(=O)Nc1cc(C)c(O)c(C)c1C [Example 95, 2-hexanoyl-N-(4-hydroxy-2,3,5-trimethylphenyl)-7-methanesulfonylamino-1,2,3,4-tetrahydroisoquinoline-(3S)-carboxamide] | 80.4%
7 | CCCCCC(=O)N1Cc2cc(OCCN3CCCC3)ccc2C[C@H]1C(=O)Nc1cc(C)c(O)c(C)c1C.Cl [Example 118, 2-hexanoyl-N-(4-hydroxy-2,3,5-trimethylphenyl)-7-[2-(pyrrolidin-1-yl)ethoxy]-1,2,3,4-tetrahydroisoquinoline-(3S)-carboxamide hydrochloride] | 68.6%
8 | CCCCCC(=O)N1Cc2cc(OCCCO)ccc2C[C@H]1C(=O)Nc1cc(C)c(O)c(C)c1C [Example 119, 2-hexanoyl-7-(3-hydroxypropoxy)-N-(4-hydroxy-2,3,5-trimethylphenyl)-1,2,3,4-tetrahydroisoquinoline-(3S)-carboxamide] | 84.5%
9 | CCCCCC(=O)N1Cc2cc(N3CCNCC3)ccc2C[C@H]1C(=O)Nc1cc(C)c(O)c(C)c1C [Example 121, 2-hexanoyl-N-(4-hydroxy-2,3,5-trimethylphenyl)-7-(piperazin-1-yl)-1,2,3,4-tetrahydroisoquinoline-(3S)-carboxamide] | 86.8%
